# Data published in patent publication US11459339B2, “Biaryl derivative, preparation method thereof and pharmaceutical application thereof” (Abbisko Therapeutics Co., Ltd., priority 2018, dated 2022).
# Legend:
# [1] = molecular target: interaction between PD-1 and PD-L1 (Homo sapiens (Human), UniProt Q9NZQ7); test: PD1-PDL1 HTRF binding activity test (Cisbio PD-1/PD-L1 binding assay kit); conditions: read-out: PD1-PDL1 HTRF Binding Activity IC50
# [2] = molecular target: interaction between PD-1 and PD-L1 expressed on cell surfaces (Homo sapiens (Human), UniProt Q9NZQ7); test: Jurkat reporter gene cellular assay (Jurkat/NF-κB-luc/PD1 cells cocultured with Raji-PD-L1 cells, OKT-3 stimulation); format: cell-based; conditions: NF-κB-luc reporter activation fold, 6 hrs; read-out: Cell Activity EC50
# Summary of the method: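 Jurkat cells stably expressing human PD-1 and NF-κB-luciferase were cocultured with Raji cells stably expressing human PD-L1 under OKT-3 stimulation, with compound present. Luminescence was read after 6 h.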
# Sequence of interaction between PD-1 and PD-L1 expressed on cell surfaces (Q9NZQ7 19-290): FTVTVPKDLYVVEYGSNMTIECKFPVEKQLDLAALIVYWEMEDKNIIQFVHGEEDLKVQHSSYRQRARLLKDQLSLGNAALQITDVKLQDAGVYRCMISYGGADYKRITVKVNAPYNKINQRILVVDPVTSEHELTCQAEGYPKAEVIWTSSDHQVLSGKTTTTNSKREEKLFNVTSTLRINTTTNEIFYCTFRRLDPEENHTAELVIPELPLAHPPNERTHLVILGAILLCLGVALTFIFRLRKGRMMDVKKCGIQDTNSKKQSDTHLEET
# Sequence of interaction between PD-1 and PD-L1 (Q9NZQ7 19-238): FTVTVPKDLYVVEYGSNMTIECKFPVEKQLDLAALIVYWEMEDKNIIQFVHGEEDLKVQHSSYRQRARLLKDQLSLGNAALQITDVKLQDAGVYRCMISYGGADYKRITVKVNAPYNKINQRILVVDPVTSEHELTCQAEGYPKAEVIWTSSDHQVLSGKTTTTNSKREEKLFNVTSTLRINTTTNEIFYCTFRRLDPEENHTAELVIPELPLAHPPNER
structure (smiles),measurement,setting,value
"COc1cc(C(=O)Nc2cccc(-c3cccc(NC(=O)c4cc(OC)c(CN[C@H]5C[C@@H](C(=O)O)C5)cn4)c3C)c2C)ncc1CN[C@H]1C[C@@H](C(=O)O)C1 [Example 60, (1s,1′s,3s,3′s)-3,3′-((((((2,2′-dimethyl-[1,1′-biphenyl]-3,3′-diyl)bis(azanediyl))bis(carbonyl))bis(4-methoxypyridine-6,3-diyl))bis(methylene))bis(azanediyl))bis (cyclobutane-1-carboxylic acid)]",IC50,[1],0.034 nM
same,EC50,[2],580 nM
"COc1cc(C(=O)Nc2cccc(-c3cccc(NC(=O)c4cc(OC)c(CN5CCC[C@H]5C(=O)O)cn4)c3C)c2C)ncc1CN1CCC[C@H]1C(=O)O [Example 61, (2′S)-(((((2,2′-dimethyl-[1,1′-biphenyl]-3,3′-diyl)bis(azanediyl))bis(carbonyl))bis(4-methoxypyridine-6,3-diyl))bis(methylene))di-L-proline]",IC50,[1],0.18 nM
same,EC50,[2],319 nM
"COc1cc(C(=O)Nc2cccc(-c3cccc(NC(=O)c4cc(OC)c(CN5C[C@H](O)C[C@H]5C(=O)O)cn4)c3C)c2C)ncc1CN1C[C@H](O)C[C@H]1C(=O)O [Example 62, (2S,2′S,4R,4′R)-1,1′-(((((2,2′-dimethyl-[1,1′-biphenyl]-3,3′-diyl)bis(azanediyl))bis(carbonyl))bis (4-methoxypyridine-6,3-diyl))bis (methylene))bis(4-hydroxypyrrolidine-2-carboxylic acid)]",IC50,[1],0.25 nM
same,EC50,[2],639 nM
"COc1cc(C(=O)Nc2cccc(-c3cccc(NC(=O)c4cc(OC)c(CN5CCOC[C@H]5C(=O)O)cn4)c3C)c2C)ncc1CN1CCOC[C@H]1C(=O)O [Example 63, (3S,3′S)-4,4′(((((2,2′-dimethyl-[1,1′-biphenyl]-3-3′-diyl)bis(azanediyl))bis (carbonyl))bis(4-methoxypyridine-6,3-diyl))bis(methylene))bis(morpholine-3-carboxylic acid)]",IC50,[1],0.25 nM
same,EC50,[2],4600 nM
COC(=O)CNCc1cnc(C(=O)Nc2cccc(-c3cccc(NC(=O)c4cc(OC)c(CNCC(=O)OC)cn4)c3C)c2C)cc1OC [Example 66],IC50,[1],0.64 nM
same,EC50,[2],691 nM
COc1cc(C(=O)Nc2cccc(-c3cccc(NC(=O)c4cc(OC)c(CNCC(=O)O)cn4)c3C)c2C)ncc1CNCC(=O)O [Example 67],IC50,[1],0.51 nM
same,EC50,[2],349 nM
COc1cc(C(=O)Nc2cccc(-c3cccc(NC(=O)c4cc(OC)c(CN[C@H]5CCOC5=O)cn4)c3C)c2C)ncc1CN[C@H]1CCOC1=O [Example 68],IC50,[1],0.31 nM
same,EC50,[2],261 nM
COc1cc(C(=O)Nc2cccc(-c3cccc(NC(=O)c4cc(OC)c(CN[C@@H](CCO)C(=O)O)cn4)c3C)c2C)ncc1CN[C@@H](CCO)C(=O)O [Example 69],IC50,[1],0.39 nM
same,EC50,[2],105 nM
"COc1cc(C(=O)Nc2cccc(-c3cccc(NC(=O)c4cc(OC)c(CN[C@@H]5CCOC5=O)cn4)c3C)c2C)ncc1CN[C@@H]1CCOC1=O [Example 70, N,N'-(2,2′-dimethyl-[1,1′-biphenyl]-3,3′-diyl)bis(4-methoxy-5-((((R)-2-oxotetrahydrofuran-3-yl)amino)methyl)picolinamide)]",IC50,[1],0.54 nM
same,EC50,[2],2200 nM
COc1cc(C(=O)Nc2cccc(-c3cccc(NC(=O)c4cc(OC)c(CN[C@H](CCO)C(=O)O)cn4)c3C)c2C)ncc1CN[C@H](CCO)C(=O)O [Example 71],IC50,[1],0.33 nM
same,EC50,[2],756 nM
"COc1cc(C(=O)Nc2cccc(-c3cccc(NC(=O)c4cc(OC)c(CN[C@@H]5COC(=O)C5)cn4)c3C)c2C)ncc1CN[C@@H]1COC(=O)C1 [Example 72, N,N'-(2,2′-dimethyl-[1,1′-biphenyl]-3,3′-diyl)bis(4-methoxy-5-((((S)-5-oxotetrahydrofuran-3-yl)amino)methyl)picolinamide)]",IC50,[1],0.48 nM
same,EC50,[2],1560 nM
"COc1cc(C(=O)Nc2cccc(-c3cccc(NC(=O)c4cc(OC)c(CN[C@H](CO)CC(=O)O)cn4)c3C)c2C)ncc1CN[C@H](CO)CC(=O)O [Example 73, (3S,3′S)-3,3′-((((((2,2′-dimethyl-[1,1′-biphenyl]-3,3′-diyl)bis(azanediyl))bis(carbonyl))bis (4-methoxypyridine-6,3-diyl))bis (methylene))bis(azanediyl))bis(4-hydroxybutanoic acid)]",IC50,[1],0.29 nM
same,EC50,[2],812 nM
COc1cc(C(=O)Nc2cccc(-c3cccc(NC(=O)c4cc(OC)c(CN[C@H]5COC(=O)C5)cn4)c3C)c2C)ncc1CN[C@H]1COC(=O)C1 [Example 74],IC50,[1],0.14 nM
same,EC50,[2],303 nM
COc1cc(C(=O)Nc2cccc(-c3cccc(NC(=O)c4cc(OC)c(CN[C@@H](CO)CC(=O)O)cn4)c3C)c2C)ncc1CN[C@@H](CO)CC(=O)O [Example 75],IC50,[1],0.36 nM
same,EC50,[2],782 nM
"COC[C@@H](NCc1cnc(C(=O)Nc2cccc(-c3cccc(NC(=O)c4cc(OC)c(CN[C@H](COC)C(=O)OC)cn4)c3C)c2C)cc1OC)C(=O)OC [Example 76, dimethyl 2,2′-((((((2,2′-dimethyl-[1,1′-biphenyl]-3,3′-diyl)bis(azanediyl))bis(carbonyl))bis (4-methoxypyridine-6,3-diyl))bis(methylene))bis(azanediyl))(2R,2′R)-bis(3-methoxypropanoate)]",IC50,[1],7.8 nM
same,EC50,[2],3060 nM
"COC[C@@H](NCc1cnc(C(=O)Nc2cccc(-c3cccc(NC(=O)c4cc(OC)c(CN[C@H](COC)C(=O)O)cn4)c3C)c2C)cc1OC)C(=O)O [Example 77, (2R,2′R)-2,2′-((((((2,2′-dimethyl-[1,1′-biphenyl]-3,3′-diyl)bis(azanediyl))bis(carbonyl))bis(4-methoxypyridine-6,3-diyl))bis(methylene))bis (azanediyl))bis(3-methoxypropanoic acid)]",IC50,[1],0.41 nM
same,EC50,[2],297 nM
"COC[C@H](NCc1cnc(C(=O)Nc2cccc(-c3cccc(NC(=O)c4cc(OC)c(CN[C@@H](COC)C(=O)OC)cn4)c3C)c2C)cc1OC)C(=O)OC [Example 78, dimethyl 2,2′-((((((2,2′-dimethyl-[1,1′-biphenyl]-3,3′-diyl)bis(azanediyl))bis(carbonyl))bis(4-methoxypyridine-6,3-diyl))bis(methylene))bis (azanediyl))(2S,2′S)-bis(3-methoxypropanoate)]",IC50,[1],10.9 nM
same,EC50,[2],2910 nM
"COC[C@H](NCc1cnc(C(=O)Nc2cccc(-c3cccc(NC(=O)c4cc(OC)c(CN[C@@H](COC)C(=O)O)cn4)c3C)c2C)cc1OC)C(=O)O [Example 79, (2S,2′S)-2,2′-((((((2,2′-dimethyl-[1,1′-biphenyl]-3,3′-diyl)bis(azanediyl))bis(carbonyl))bis(4-methoxypyridine-6,3-diyl))bis(methylene))bis (azanediyl))bis(3-methoxypropanoic acid)]",IC50,[1],0.65 nM
same,EC50,[2],171 nM
"COc1cc(C(=O)Nc2cccc(-c3cccc(NC(=O)c4cc(OC)c(CNCCS(C)(=O)=O)cn4)c3C)c2C)ncc1CNCCS(C)(=O)=O [Example 80, N,N'-(2,2′-dimethyl-[1,1′-biphenyl]-3,3′-diyl)bis(4-methoxy-5-(((2-(methylsulfonyl)ethyl)amino)methyl)picolinamide)]",IC50,[1],0.082 nM
same,EC50,[2],3740 nM
"COc1cc(C(=O)Nc2cccc(-c3cccc(NC(=O)c4cc(OC)c(CNCC[S+](C)[O-])cn4)c3C)c2C)ncc1CNCC[S+](C)[O-] (stereo not shown) [Example 81, N,N'-(2,2′-dimethyl-[1,1′-biphenyl]-3,3′-diyl)bis(4-methoxy-5-(((2-(methylsulfinyl)ethyl)amino)methyl)picolinamide)]",IC50,[1],0.43 nM
same,EC50,[2],900 nM
"COC(=O)[C@H]1CCN(Cc2cnc(C(=O)Nc3cccc(-c4cccc(NC(=O)c5cc(OC)c(CN6CC[C@H](C(=O)OC)C6)cn5)c4C)c3C)cc2OC)C1 [Example 82, dimethyl 1,1′-(((((2,2′-dimethyl-[1,1-biphenyl]-3,3′-diyl)bis(azanediyl))bis(carbonyl))bis(4-methoxypyridine-6,3-diyl))bis(methylene))(3S,3′S)-bis(pyrrolidine-3-carboxylate)]",IC50,[1],1.9 nM
same,EC50,[2],566 nM
"COc1cc(C(=O)Nc2cccc(-c3cccc(NC(=O)c4cc(OC)c(CN5CC[C@H](C(=O)O)C5)cn4)c3C)c2C)ncc1CN1CC[C@H](C(=O)O)C1 [Example 83, (3S,3′S)-1,1′-(((((2,2′-dimethyl-[1,1′-biphenyl]-3,3′-diyl)bis(azanediyl))bis(carbonyl))bis(4-methoxypyridine-6,3-diyl))bis(methylene))bis (pyrroidine-3-carboxylic acid)]",IC50,[1],1.04 nM
same,EC50,[2],309 nM
"COC(=O)C1CCN(Cc2cnc(C(=O)Nc3cccc(-c4cccc(NC(=O)c5cc(OC)c(CN6CCC(C(=O)OC)CC6)cn5)c4C)c3C)cc2OC)CC1 [Example 84, dimethyl 1,1′-(((((2,2′-dimethyl-[1,1′-biphenyl]-3,3′-diyl)bis(azanediyl))bis(carbonyl))bis(4-methoxypyridine-6,3-diyl))bis(methylene))bis(piperidine-4-carboxylate)]",IC50,[1],1.36 nM
same,EC50,[2],603 nM
"COc1cc(C(=O)Nc2cccc(-c3cccc(NC(=O)c4cc(OC)c(CN5CCC(C(=O)O)CC5)cn4)c3C)c2C)ncc1CN1CCC(C(=O)O)CC1 [Example 85, 1,1′-(((((2,2′-dimethyl-[1,1′-biphenyl]-3,3′-diyl)bis(azanediyl))bis(carbonyl))bis (4-methoxypyridine-6,3-diyl))bis(methylene))bis (piperidine-4-carboxylic acid)]",IC50,[1],0.45 nM
same,EC50,[2],341 nM
"COc1cc(C(=O)Nc2cccc(-c3cccc(NC(=O)c4cc(OC)c(CN[C@H](CO)C(N)=O)cn4)c3C)c2C)ncc1CN[C@H](CO)C(N)=O [Example 86, N,N′-(2,2′-dimethyl-[1,1′-biphenyl]-3,3′-diyl)bis(5-((((R)-1-amino-3-hydroxy-1-oxopropan-2-yl)amino)methyl)-4-methoxypicolinamide)]",IC50,[1],1.34 nM
same,EC50,[2],406 nM
CCNC(=O)[C@@H](CO)NCc1cnc(C(=O)Nc2cccc(-c3cccc(NC(=O)c4cc(OC)c(CN[C@H](CO)C(=O)NCC)cn4)c3C)c2C)cc1OC [Example 87],IC50,[1],1.08 nM
same,EC50,[2],800 nM
